From patent publication US6537967B1, “Pentamer peptide amide, ALGPGNH2, which inhibits viral infectivity and methods of use thereof” (Tripep AB, priority 2001, dated 2003) come the findings set out here.

Holding throughout (format): cell-based
The subject of one test is HIV-1 clinical isolate 2. The experiment in a line: HIV-1 clinical isolate 2 infectivity assay in PBMC (p24 in culture supernatant). Particulars: FIG. 2. As to the method: (§1) In this example, the methods that were used to analyze the ability of ALGPG-NH2 (SEQ. ID. NO.: 1) to inhibit HIV- l replication are disclosed. HIV-1 SF-2 stock was prepared from HUT78 cells and two clinical isolates were prepared from donor's peripheral blood mononuclear cells (PBMC). The virus infected cells were propagated and maintained in RPMI 1640 medium supplemented with 10% heat inactivated fetal bovine serum (GIBCO Laboratories) with penicillin and streptomycin (100 μg/ml each). PBMCs were purified by Ficoll-Hypaque density gradient centrifugation and stimulated with phytohemagglutinin (KEBO laboratories, Sweden) for three days in RPMI 1640 medium supplemented with 10% heat inactivated fetal bovine serum (GIBCO Laboratories) with penicillin and streptomycin (100 μg/ml each).
(§2) The infectivity assays of the HIV-1 clinical isolates were performed, as above, in PBMC, which were stimulated for three days with 2.5 μg/ml of phytohemagglutinin (DIFCO, New Jersey). Cells were cultured in RPMI 1640 medium supplemented with 10% (v/v) heat-inactivated fetal bovine serum (FBS), penicillin (100 u/ml), and streptomycin (100 u/ml), all available through GIBCO, and Polybrene (2 μg/ml), available through Sigma. […] The production of p24 in the culture supernatent was monitored using a commercially available HIV p24 antigen detection kit (ELISA kit from Abbott Laboratories, North Chicago, U.S.A.).

The next test relates to HIV-1 clinical isolate 1. Description: HIV-1 clinical isolate 1 infectivity assay in PBMC (p24 in culture supernatant). As to conditions: FIG. 2. How it is done: as §1, §2
A further test relates to HIV-1 SF-2. Description: HIV-1 SF-2 infectivity assay in H9 cells (RT activity and p24 in culture supernatant). As to conditions: 25 TCID50, FIG. 1. As to the method: as §1
Approximately 10^5 of H9 cells were infected with HIV-1 SF-2, obtained as described above, at 25 TCID50 to test the inhibitory effect of ALGPG-NH2 (SEQ. ID. NO.: 1). The H9 cells were resuspended with or without ALGPG-NH2 (SEQ. ID. NO.: 1) (at approximately 5 μM, 20 μM, and […]) in 1 ml of RPMI 1640 medium supplemented with 10% (v/v) heat-inactivated fetal bovine serum (FBS), penicillin (100 μ/ml), and streptomycin (100 u/ml), all available through GIBCO, and Polybrene (2 μg/ml), available through Sigma. Thereafter, viruses were added at 25 TCID50 in a volume of 20-30 μl. Cells were incubated with virus at 37° C. for 1 hr then pelleted at 170×g for 7 minutes. The cells were then washed three times in RPMI medium with or without peptides at room temperature and pelleted at 170×g for 7 minutes, as above. […]
Culture supernatants were collected and analyzed when the medium was changed at 4, 7, 10, and 14 days post infection. […] The amount of RT was determined with the aid of a regression line of standards. The presence of p24 in the supernatants was determined using a commercially available HIV p24 antigen detection kit (ELISA kit from Abbott Laboratories, North Chicago, U.S.A.).

Peptide text beside a SMILES is read from it.

Take `CC(C)C[C@H](NC(=O)[C@H](C)N)C(=O)NCC(=O)N1CCC[C@H]1C(=O)NCC(N)=O` [ALGPG-NH2] (H-ALGPG-NH2; N-terminus assumed): the “inhibition of isolate 2” value with HIV-1 clinical isolate 2 (20 μM) was “approximately 50%”; in the test on HIV-1 clinical isolate 2 (100 μM) it was “almost complete”. For the same compound, the “inhibition of isolate 1” value in the test with HIV-1 clinical isolate 1 (20 μM) is listed as “approximately 20%”; in the test with HIV-1 clinical isolate 1 (100 μM), “almost complete”. For the same compound, the “inhibition of HIV-1 SF-2 infection” value in the test on HIV-1 SF-2 (5 μM peptide amide) was “approximately 50%”; in the test on HIV-1 SF-2 (20 μM peptide amide), “almost complete”; in the test with HIV-1 SF-2 (100 μM peptide amide), “almost complete”.
